Test results published in US20120087864A1, “METHOD FOR DIAGNOSING AND/OR EVALUATING RETINAL DISEASE” (R-TECH UENO, LTD., priority 2010, published 2012).
Several values for one entry are separate records, joined by “and”; a condition that tells them apart may be missing. Equal values may be shown once. Marks after values point to notes of the source that are not given here.

Assays:
Type in all cases: in vivo, human
[1] = tested on: patient with retinal pigmentosa; assay: Humphrey visual field test (SITA-Standard, central 10-2) retinal sensitivity (MD value), 24-week placebo-controlled clinical test; settings: 0.15% solution twice a day; for change value of Humphrey central 10-2 retina sensitivity (MD value): change from before treatment
Procedure: (§1) One drop or two drops of isopropyl unoprostone 0.15 w/v % ophthalmic solution per one time was administered to each eye of patient with retinal pigmentosa daily for 24 weeks, and the following items were examined. 112 patients participated this test.
Change in retinal sensitivity through Humphrey visual field test (SITA-Standard, 10-2)
(§2) The above ophthalmic solution of Formulation Example 1 was used as the test drug.
(§3) (1) Dosage regimen: Instillation twice* a day, one drop of a first solution was instilled at the time of first instillation and, after 5 minute, one drop of a second solution was instilled into both eyes.
Since subjective symptoms depend on one eye having better visual function than the other, when both eyes satisfy the all selection criteria, the eye having better desimal visual acuity was adopted as the eye for evaluation of efficacy. When both eyes have the same desimal visual acuity, right eye was adopted as the eye for evaluation of efficacy
Between-group comparison of the average of Humphrey central 10-2 retina sensitivity (MD value) was made every measurement time point.
Between-group comparison of the change value of Humphrey central 10-2 retina sensitivity (MD value) was made every measurement time point.

[2] = tested on: patient with retinal pigmentosa; assay: Humphrey visual field test, retinal sensitivity of central 2 degrees (4 points); settings: 0.15% solution twice a day
Procedure: as §1
Change in retinal sensitivity of central 2 degrees (4 points) through Humphrey visual field test
as §2, §3
Between-group comparison of the change value of Humphrey central 4 points retinal sensitivity was made every measurement time point.

[3] = tested on: patient with retinal pigmentosa; assay: NEI VFQ-25 (Compo 8) vision-related QOL questionnaire; settings: 0.15% solution twice a day, after 24 weeks minus 0 week
Procedure: as §1
Change in The 25-Item National Eye Institute Visual Function Questionnaire (NEI VFQ-25) Compo 8:
Original NEI VFQ-25 (The 25-item National Eye Institute Visual Function Questionnaire) for evaluation of vision-related QOL of a patient is constituted from visual functions in various living scenes, and 12 subscales (questions of 25 items) for measurement of the degree of restrictions of vision-related physical, mental and social living scenes. In the present test, a questionnaire of Compo 8 constituted from 8 subscales with exception of general health, driving, peripheral vision and ocular pain among the subscales was used. At the time of completion of the pre-observation period (0 week) and completion of the treatment (24 weeks), a change value of score (the value after 24 weeks minus the value at 0 week) was evaluated.

[4] = tested on: patient with retinal pigmentosa; assay: Distribution of MP-1 central 2 degrees retinal sensitivity change by concentration of metabolite A in plasma (LC/MS/MS); settings: instillation group
Procedure: Concentration of drug in plasma (20 week after the initiation of test drug administration, the concentration of the drug in plasma after 15 minutes had passed since instillation of the second drop). Evaluate items: The concentration of isopropyl unoprostone and its metabolite A (free carboxylic acid of isopropyl unoprostone in plasma was measured.)
Twenty weeks after the initiation of the test drug administration in Test Example 1, the concentration of the drug in plasma was measured after 15 minutes had passed since instillation of the second drop.
Evaluation item: concentration of metabolite A (free carboxylic acid of isopropyl unoprostone) in plasma Measuring method: Twenty weeks after initiation of test drug administration, samples were obtained by drawing 4 ml of blood per time after 15 minutes had passed since instillation of the second drop, and then the concentration of the metabolite A in plasma was measured by liquid chromatogram/Tandem mass spectrometer (LC/MS/MS) using a portion of the measuring samples. Measuring apparatus: liquid chromatograph/Tandem mass spectrometer (LC/MS/MS) [High-performance liquid chromatography system (SHIMADZU 20A, manufactured by Shimadzu Corporation) Analysis column: Develosil ODS-UG-3 (2.0 mm I.D.×50 mm, 3 μm, manufactured by Nomura Chemical Co., Ltd.) Column temperature: 35° C. Injection amount: 20 μL Mobile phase A: acetonitrile/10 mmol/L ammonium acetate solution/acetic acid (20:80:0.1, v/v/v) Mobile phase B: acetonitrile/acetic acid (100:0.1, v/v) Needle wash: Methanol Flow rate: 0.25 mL/minute Mass spectrometry (API 4000, manufactured by Applied Biosystems)] Ionization method: ESI method (Turbo ion spray, 350° C.) […] Internal standard substance: 17,20-dimethyl PGF1α
In order to evaluate a correlation of the change value (24 weeks) of average retinal sensitivity by MP-1 in central 2 degrees (4 points) with the concentration of metabolite A in plasma of the isopropyl unoprostone instillation group, when the change value (24 weeks) of average retinal sensitivity by MP-1 in central 2 degrees (4 points) was a positive value, it was classified as “improvement”. In contrast, when the change value was zero and a negative value, it was classified as “non-improvement”. Furthermore, each concentration of metabolite A in plasma (1 ng/mL, 2 ng/mL, 2.5 ng/mL and 3 ng/mL) was regarded as a boundary concentration, distribution of the change value (24 weeks) by MP-1 in central 2 degrees (4 points) average retinal sensitivity was confirmed.

[5] = tested on: patient with retinal pigmentosa; assay: Intraocular pressure (IOP) over the 24-week measurement period; settings: one drop and two drop groups
[6] = one drop per time group, after 4 weeks
[7] = one drop per time group, after 8 weeks
[8] = one drop per time group, after 16 weeks
[9] = one drop per time group, after 24 weeks
[10] = two drops per time group, after 4 weeks
[11] = two drops per time group, after 8 weeks
[12] = two drops per time group, after 16 weeks
[13] = two drops per time group, after 24 weeks
[14] = metabolite A in plasma 1.0 ng/mL or more
[15] = metabolite A in plasma 2.0 ng/mL or more
[16] = metabolite A in plasma 2.5 ng/mL or more
[17] = metabolite A in plasma 3.0 ng/mL or more
[18] = metabolite A in plasma less than 1.0 ng/mL
[19] = metabolite A in plasma less than 2.0 ng/mL
[20] = metabolite A in plasma less than 2.5 ng/mL
[21] = metabolite A in plasma less than 3.0 ng/mL

SMILES: CCCCCCCC(=O)CC[C@@H]1[C@@H](C/C=C\CCCC(=O)OC(C)C)[C@@H](O)C[C@H]1O [isopropyl unoprostone, (+)-isopropyl (Z)-7-[(1R,2R,3R,5S)-3,5-dihydroxy-2-(3-oxodecyl)cyclopentyl]hept-5-enoate]
- average of Humphrey central 10-2 retina sensitivity (MD value) ([1]; one drop per time group, 0 week (before treatment)): −14.116 dB
- average of Humphrey central 10-2 retina sensitivity (MD value) [1, 6]: −13.952 dB
- average of Humphrey central 10-2 retina sensitivity (MD value) [1, 7]: −14.074 dB
- change value of Humphrey central 10-2 retina sensitivity (MD value) [1, 7]: 0.042 dB
- average of Humphrey central 10-2 retina sensitivity (MD value) [1, 8]: −13.768 dB
- change value of Humphrey central 10-2 retina sensitivity (MD value) [1, 8]: 0.136 dB
- average of Humphrey central 10-2 retina sensitivity (MD value) [1, 9]: −13.699 dB
- change value of Humphrey central 10-2 retina sensitivity (MD value) [1, 9]: 0.417 dB
- average of Humphrey central 10-2 retina sensitivity (MD value) ([1]; two drops per time group, 0 week (before treatment)): −18.376 dB
- average of Humphrey central 10-2 retina sensitivity (MD value) [1, 10]: −17.671† dB
- change value of Humphrey central 10-2 retina sensitivity (MD value) [1, 10]: 0.831 dB
- average of Humphrey central 10-2 retina sensitivity (MD value) [1, 11]: −17.810 dB
- change value of Humphrey central 10-2 retina sensitivity (MD value) [1, 11]: 0.696* dB
- average of Humphrey central 10-2 retina sensitivity (MD value) [1, 12]: −17.341† dB
- change value of Humphrey central 10-2 retina sensitivity (MD value) [1, 12]: 0.777 dB
- average of Humphrey central 10-2 retina sensitivity (MD value) [1, 13]: −17.411† dB
- change value of Humphrey central 10-2 retina sensitivity (MD value) [1, 13]: 0.891 dB
- change value of Humphrey central 4 points retinal sensitivity [2, 6]: −0.178
- change value of Humphrey central 4 points retinal sensitivity [2, 7]: 0.158
- change value of Humphrey central 4 points retinal sensitivity [2, 8]: 0.336
- change value of Humphrey central 4 points retinal sensitivity [2, 9]: 0.334
- change value of Humphrey central 4 points retinal sensitivity [2, 10]: 0.714
- change value of Humphrey central 4 points retinal sensitivity [2, 11]: 0.821
- change value of Humphrey central 4 points retinal sensitivity [2, 12]: 1.253*^†1
- change value of Humphrey central 4 points retinal sensitivity [2, 13]: 2.009 and 2.009*^†1†2
- change value of VFQ-25 subscale "vision-related social function" ([3]; one drop per time group): −2.3
- change value of VFQ-25 summary score ([3]; one drop per time group): −1.1
- change value of VFQ-25 subscale "vision-related social function" ([3]; two drops per time group): 6.6*^†
- change value of VFQ-25 summary score ([3]; two drops per time group): 2.69^†
- number of improved cases (MP-1 central 2 degrees change value, 24 weeks, positive) [4, 14]: 33
- number of non-improved cases [4, 14]: 18
- ratio of improved cases [4, 14]: (64.7%)
- ratio of non-improved cases [4, 14]: (35.3%)
- number of improved cases (MP-1 central 2 degrees change value, 24 weeks, positive) [4, 15]: 16
- number of non-improved cases [4, 15]: 8
- ratio of improved cases [4, 15]: (66.7%)
- ratio of non-improved cases [4, 15]: (33.3%)
- number of improved cases (MP-1 central 2 degrees change value, 24 weeks, positive) [4, 16]: 12
- number of non-improved cases [4, 16]: 2
- ratio of improved cases [4, 16]: (85.7%)
- ratio of non-improved cases [4, 16]: (14.3%)
- number of improved cases (MP-1 central 2 degrees change value, 24 weeks, positive) [4, 17]: 9
- number of non-improved cases [4, 17]: 1
- ratio of improved cases [4, 17]: (90.0%)
- ratio of non-improved cases [4, 17]: (10.0%)
- number of improved cases (MP-1 central 2 degrees change value, 24 weeks, positive) [4, 18]: 11
- number of non-improved cases [4, 18]: 11
- ratio of improved cases [4, 18]: (50.0%)
- ratio of non-improved cases [4, 18]: (50.0%)
- number of improved cases (MP-1 central 2 degrees change value, 24 weeks, positive) [4, 19]: 28
- number of non-improved cases [4, 19]: 21
- ratio of improved cases [4, 19]: (57.1%)
- ratio of non-improved cases [4, 19]: (42.9%)
- number of improved cases (MP-1 central 2 degrees change value, 24 weeks, positive) [4, 20]: 32
- number of non-improved cases [4, 20]: 27
- ratio of improved cases [4, 20]: (54.2%)
- ratio of non-improved cases [4, 20]: (45.8%)
- number of improved cases (MP-1 central 2 degrees change value, 24 weeks, positive) [4, 21]: 35
- number of non-improved cases [4, 21]: 28
- ratio of improved cases [4, 21]: (55.6%)
- ratio of non-improved cases [4, 21]: (44.4%)
- decrease of intraocular pressure (IOP) as compared to the placebo [5]: greater decrease in IOP
